# Reference: patent US20050220803A1, “Use of an organ-specific self-pathogen for treatment of a non-autoimmune disease of said organ” (Yeda Research and Development Co. Ltd., priority 2002, published 2005)
# “Also recorded” adds a separate entry of the source.
# B1: MBP: myelin basic protein, a myelin antigen (protein, UniProt P02688 2-195, looked up)
# Myelin basic protein: ASQKRPSQRHGSKYLATASTMDHARHGFLPRHRDTGILDSIGRFFSGDRGAPKRGSGKVPWLKQSRSPLPSHARSRPGLCHMYKDSHTRTTHYGSLPQKSQRTQDENPVVHFFKNIVTPRTPPPSQGKGRGLSLSRFSWGAEGQKPGFGYGGRASDYKSAHKGFKGAYDAQGTLSKIFKLGGRDSRSGSPMARR
# Legend:
# [1] = system: retinal ganglion cells (RGCs); test: Glutamate toxicity: RGC loss after intravitreal L-glutamate injection and immunization; type: in vivo; conditions: Lewis rats
# [2] = system: retinal ganglion cells (RGCs); test: Partial optic nerve crush injury: RGC survival after active immunization; type: in vivo, rats (SPD, Fisher, Lewis)
# spinal cord = test: Recovery from spinal cord contusion (open-field locomotor score); type: in vivo; conditions: female Lewis rats; contusion at T8; 100 μg in CFA (0.5 mg/ml) within 1 h after contusion
# [3] = system: experimental autoimmune uveoretinitis (EAU); test: Induction of uveitis / EAU by the peptide; type: in vivo; conditions: Lewis rats
# [4] = system: experimental autoimmune uveoretinitis (EAU); conditions: cited from earlier work; for uveitogenicity / immunopathogenicity: rat, in vivo
# [5] = system: retinal ganglion cells (RGCs); test: RGC survival after immunization in the absence of insult; conditions: for percentage of RGC survival (mean ± SEM) vs PBS-injected controls: immunization without insult
# [6] = system: retinal ganglion cells (RGCs); conditions: glutamate insult or consequences of axonal injury; conditions where R16 protects; cited from earlier work
# [7] = Fisher rats, 200 μg peptide in CFA immediately after optic nerve crush
# [8] = Fisher rats, 200 μg peptide in CFA immediately after optic nerve crush, PBS control 109±12
molecule,measurement,setting,value
ADGSSWEGVGVVPVD (ADGSSWEGVGVVPDV) [Peptide R16],percentage of RGC loss (mean ± SEM) relative to normal retinas,"[1]; 400 nmol L-glutamate intravitreal, 30 μg peptide in CFA (0.5 mg/ml) immediately after, PBS in CFA control 28±4%",14±2%
same,protection of RGCs from glutamate toxicity,"[1]; peptide emulsified in CFA at 2.5 mg/ml, compared with PBS in CFA, data not shown",not protective and even caused additional neuronal loss
same,surviving RGCs per square millimeter (mean ± SEM),"[2]; Fisher rats, 30 μg in CFA (2.5 mg/ml) immediately after optic nerve crush, PBS control 114±9",183±16 per square millimeter
same,surviving RGCs per square millimeter (mean ± SEM),"[2]; Fisher rats, 30 μg in CFA one week before crush, booster 30 μg in IFA after injury, PBS control 89±10",165±22 per square millimeter
same,surviving RGCs per square millimeter (mean ± SEM),"[2]; Lewis rats, 30 μg in CFA (2.5 mg/ml) immediately after optic nerve crush, PBS control 73±10",192±8 per square millimeter
same,surviving RGCs per square millimeter (mean ± SEM),"[2]; Lewis rats, 30 μg in CFA one week before crush, booster 30 μg in IFA after injury, PBS control 95±22, not statistically significant",117±21 per square millimeter
same,maximal benefit after a neuronal insult (surviving RGCs vs PBS),"[2]; Lewis rats, 192±8 vs 73±10 surviving RGCs/mm^2",263%
same,surviving RGCs per square millimeter (mean ± SEM),"[2]; SPD rats, 30 μg in CFA (2.5 mg/ml) immediately after optic nerve crush, PBS control 60±14",150±13 per square millimeter
same,recovery of motor activity (open-field motor score) vs PBS in CFA,spinal cord,did not affect spinal cord recovery; also recorded: At no time were any differences observed
same,"clinical onset of EAU, day after immunization",[3],10 days
same,"peak of inflammation (EAU), day after immunization",[3],14 days
same,induction of uveitis,"[4]; Lewis rats, but not SPD or Fisher rats",known to cause uveitis in Lewis rats
same,percentage of RGC survival (mean ± SEM) vs PBS-injected controls,[5]; Fisher rats,97±8%
same,percentage of RGC survival (mean ± SEM) vs PBS-injected controls,"[5]; Lewis rats, 2 weeks after vaccination",83±5%
same,maximal loss of RGCs,"[5]; non-injured Lewis rats, 2 weeks after vaccination",~17%
DTALASST [M-8 analog],RGC survival compared with PBS-injected controls,[2]; [7],Significantly more RGCs
same,surviving RGCs per square millimeter (mean ± SEM),[2]; [8],159±19 per square millimeter
same,uveitogenicity / immunopathogenicity,[4],"immunogenic, but not immunopathogenic"
DTNLASST [Peptide M-8],RGC survival compared with PBS-injected controls,[2]; [7],Significantly more RGCs
same,surviving RGCs per square millimeter (mean ± SEM),[2]; [8],153±10 per square millimeter
same,uveitogenicity / immunopathogenicity,[4],uveitogenic
TSSEAATE [G-8 analog],RGC survival compared with PBS-injected controls,"[2]; Fisher rats, 500 μg peptide in CFA immediately after optic nerve crush",Significantly more RGCs survived
same,surviving RGCs per square millimeter (mean ± SEM),"[2]; Fisher rats, 500 μg peptide in CFA immediately after optic nerve crush, PBS control 90±11",175±15 per square millimeter
same,uveitogenicity / immunopathogenicity,[4],"immunogenic, but not immunopathogenic"
TSSEVATE [Peptide G-8],RGC survival compared with PBS-injected controls,[2]; [7],Significantly more RGCs
same,surviving RGCs per square millimeter (mean ± SEM),[2]; [8],159±5 per square millimeter
same,uveitogenicity / immunopathogenicity,[4],uveitogenic
B1,protective effect on RGCs by vaccination,[6],no such protective effect
